Measured values from US10357516B2 (priority 2008, dated 2019).
Marks after values point to notes of the source that are not given here.

Assays:
Escherichia coli = test: Pathogen inactivation in RBC units (log reduction); type: cell-based
[1] = tested on: Vesicular stomatitis virus (VSV); type: cell-based
Yersinia enterocolitica = type: cell-based
Pseudomonas aerugenosa = test: Low level input full unit inactivation in RBC units; type: cell-based, Pseudomonas aeruginosa
P. aeruginosa = test: Pathogen inactivation in RBC units (log reduction), high level input; type: cell-based, Pseudomonas aeruginosa
Description: Bacteria: Frozen working stocks of bacteria were inoculated into a 500 mL flask containing a mixture of 50% yeast extract media without added glucose and 50% fetal bovine serum. The flasks were incubated overnight in a shaking waterbath set at 37° C. Gram positive bacteria were spiked into the blood product directly from the overnight culture. The overnight cultures of Gram negative bacteria were further subcultured by a 1:1000 dilution into fresh culture medium and incubated as above until they reach log phase as determined by optical density. This log phase growth was spiked into the blood product for PI experiments.
The PI process involves inoculation of RBC units with a culture of the organism to be tested. The typical target input titer of organisms in the RBC units was approximately 10^6 cfu or pfu/mL of RBC. In most cases the organism volume (including any culture medium) was approximately 1% of the RBC unit volume and was not typically greater than 10%. To evaluate inactivation of lower, more physiologically relevant, levels of bacteria, inputs from 10 to 10^5 cfu/unit were used.
The dosing solutions were prepared and added to the units as follows: A 600 mM Glutathione (GSH) solution with 1 equivalent of NaOH was prepared by dissolving 2.8 g of GSH in ˜12 mL of 0.9% saline and 0.9 mL of 10 N NaOH. The appropriate volume of GSH solution was drawn into a 20 mL capacity syringe. The volume used was typically 10 mL of GSH solution per 280 mL of RBC, plus 2 mL line loss to generate 20 mM GSH in the dosed RBC unit. The syringe containing GSH was attached to the mixing container using the filtered lead that shares a Y fitting with the lead connected to the incubation container. The unit was placed on a rocker to facilitate top to bottom mixing during addition of dosing solutions. The GSH was added to the unit while the unit is mixing on the rocker. […]
Log reduction for each unit was determined by taking the log of the ratio of pre-treatment titer to post-treatment titer, where titers were expressed as 10×cfu or pfu/mL. […]

Staphylococcus aureus = test: Pathogen inactivation in RBC units (log reduction); type: cell-based
Serratia marcescens = test: Pathogen inactivation in RBC units (log reduction); type: cell-based
[2] = diluted SAG-M RBC units, 20 mM GSH sodium salt, 0.2 mM S-303, 3 hour incubation, n = 4
[3] = high level input, 130 μM S-303, 13 mM GSH (1 b.e.), diluted with diluent solution, 3 h RT, N = 2
[4] = high level input, 200 μM S-303, 20 mM GSH (1 b.e.), without leukofiltration, 3 h RT, N = 2
[5] = high level input, 200 μM S-303, 20 mM GSH (1 b.e.), 3 h RT, N = 2
[6] = low level input, 200 μM S-303, 20 mM GSH (1 b.e.), RT 20 hours then 37° C. ~20 hours

O=C(CCNc1c2ccccc2nc2ccccc12)OCCN(CCCl)CCCl [S-303, β-alanine, N-(acridin-9-yl), 2-[bis(2-chloroethyl)amino]ethyl ester]
Log Reduction GSH (20 mM), 1 b.e. (Escherichia coli): 5.9 ± 0.8 log | Log Reduction GSH (20 mM), 2 b.e. (Escherichia coli): 6.5 log | Average Log Kill (Escherichia coli; [2]): ≥6.69 log | Mean Log10 Reduction, 40% Hematocrit (Escherichia coli; [3]): 6.6 log10 | Mean Log10 Reduction, 60% Hematocrit (Escherichia coli; high level input, 200 μM S-303, 20 mM GSH (1 b.e.), 3 h RT, n = 3): 6.1^c log10 | Mean Log10 Reduction, 80% Hematocrit (Escherichia coli; [4]): 3.8^b log10 | Log Reduction GSH (20 mM), 1 b.e. [1]: >5.9 log | Log Reduction GSH (20 mM), 2 b.e. [1]: 4.2 log | Mean Log10 Reduction, 40% Hematocrit ([1]; N = 2): 5.9 log10 | Mean Log10 Reduction, 60% Hematocrit ([1]; N = 2): >5.9 log10 | Mean Log10 Reduction, 80% Hematocrit ([1]; N = 2): >6.2^b log10 | Log Reduction GSH (20 mM), 1 b.e. (Yersinia enterocolitica; Y. enterocolitica, 0.2 mM S-303, 20 mM GSH with 1 equivalent NaOH, AS-3 RBC ~60% hematocrit, 3 h at 20 to 25° C.): 5.0 ± 0.4 log | Log Reduction GSH (20 mM), 2 b.e. (Yersinia enterocolitica; Y. enterocolitica, previous conditions, GSH neutralized with 2 equivalents NaOH): 4.6 log | Average Log Kill (Yersinia enterocolitica; [2]): ≥6.57 log | Mean Log10 Reduction, 40% Hematocrit (Yersinia enterocolitica; [3]): 6.1 log10 | Mean Log10 Reduction, 60% Hematocrit (Yersinia enterocolitica; [5]): 4.9 log10 | Mean Log10 Reduction, 80% Hematocrit (Yersinia enterocolitica; [4]): 3.4^b log10 | Pathogen inactivation of Pseudomonas aeruginosa (Pseudomonas aerugenosa): complete inactivation | Full Unit Inactivation, 40% Hematocrit (Pseudomonas aerugenosa; low level input, 130 μM S-303, 13 mM GSH (1 b.e.), RT 20 hours then 37° C. ~20 hours): ≥2.5 log10 | Full Unit Inactivation, 60% Hematocrit (Pseudomonas aerugenosa; [6]): ≥2.5 log10 | Full Unit Inactivation, 80% Hematocrit (Pseudomonas aerugenosa; [6]): ≥2.7 log10 | Log Reduction GSH (20 mM), 1 b.e. (P. aeruginosa; P. aeruginosa, 0.2 mM S-303, 20 mM GSH with 1 equivalent NaOH, AS-3 RBC ~60% hematocrit, 3 h at 20 to 25° C.): 1.2 ± 0.4 log | Log Reduction GSH (20 mM), 2 b.e. (P. aeruginosa; P. aeruginosa, previous conditions, GSH neutralized with 2 equivalents NaOH): 1.8 log | Average Log Kill (P. aeruginosa; [2]): 3.35 log | Log Reduction GSH (20 mM), 1 b.e. (Staphylococcus aureus): 6.0 ± 0.3 log | Log Reduction GSH (20 mM), 2 b.e. (Staphylococcus aureus): 6.4 log | Average Log Kill (Staphylococcus aureus; [2]): 4.15 log | Mean Log10 Reduction, 40% Hematocrit (Staphylococcus aureus; [3]): >7 log10 | Mean Log10 Reduction, 60% Hematocrit (Staphylococcus aureus; [5]): 6.7 log10 | Mean Log10 Reduction, 80% Hematocrit (Staphylococcus aureus; [4]): ≥5.8^b log10 | Log Reduction GSH (20 mM), 1 b.e. (Serratia marcescens): 3.7 ± 0.4 log | Log Reduction GSH (20 mM), 2 b.e. (Serratia marcescens): 4.8 log | Average Log Kill (Serratia marcescens; [2]): 4.20 log | Mean Log10 Reduction, 40% Hematocrit (Serratia marcescens; [3]): 3.1 log10 | Mean Log10 Reduction, 60% Hematocrit (Serratia marcescens; [5]): 4.5 log10 | Mean Log10 Reduction, 80% Hematocrit (Serratia marcescens; [4]): 4.4^b log10
